In PMC4830892, “A microarray-based approach to evaluate the functional significance of protein-binding motifs” (Analytical and Bioanalytical Chemistry, 2016):
Where two headings read alike, the source gives them in different places. Non-standard residues stand in square brackets, D forms with d. Residues, ends and D or L forms follow the SMILES beside them. pY = N[C@@H](Cc1ccc(OP(=O)(O)O)cc1)C(=O)O

Key:
[1] = test system: α-phosphotyrosine antibody (α-pTyr 100); assay: Titration of α-pY antibody on peptide microarrays; type: binding; conditions: for affinity of the α-pY antibody (in words): compared with the other pY peptides; for Kd: peptide microarray, α-pY antibody 0.06 to 6.66 nM, 3 h at 4 °C, indirect immunofluorescence (Alexa633), bimolecular binding isotherm (Eq. 1), average ± standard deviation, six independent experiments
Description: (§1) Peptides that correspond to known interaction motifs involved in the formation of protein complexes in T cell signalling were purchased from EMC microcollections (Tübingen, Germany). All peptides carried an extra cysteine residue and a free N-terminus for immobilisation on the microarray substrates and a C-terminal amidation (see Electronic Supplementary Material (ESM), Table S1).
(§2) For generation of microarrays, peptide stock solutions (3 mM) in DMF were diluted 30 times with phosphate buffer (100 mM, pH 8) supplemented with 0.006 % (v/v) Triton X-100. N-Hydroxysuccinimide-preactivated slides served as substrates for immobilisation (Nexterion Slide H, Schott Nexterion/Peq-Lab, Erlangen, Germany) using a Nano-Plotter NP2.0 (GeSIM, Großerkmannshof, Germany), which employs piezo-driven pipetting tips to dispense peptide solutions. Microarray slides comprised 16 subarrays of doublets of each peptide. For each peptide, a volume of 1.2 nl was dispensed at a centre-to-centre spacing of 500 μm. During printing, temperature was maintained at 15 °C and air humidity at 65 %.
(§3) Sixteen incubation chambers with identical subarrays consisting of peptides derived from binding motifs of signalling proteins (see ESM Table S1) were generated by attaching a clip-on frame to the microarray substrate (ProPlate Multiarray System, Grace Biolabs, Molecular Probes, Eugene, OR, USA). The typical incubation volume for the subarrays was 50 μl. Microarrays were either incubated with an α-pY antibody (α-pTyr 100, 9411, Cell Signalling, Frankfurt am Main, Germany) at the indicated concentrations or co-incubated with cell lysate at the indicated concentrations for 3 h at 4 °C. Additionally, in another set of experiments, recombinant GRB2-SH2 was incubated on microarrays alone or co-incubated with cell lysate employing an α-penta HIS antibody (34600, Qiagen, Hilden, Germany) for the detection of His-tagged GRB2-SH2.
(§4) After incubation, microarrays were washed three times with washing buffer (PBS, 0.05 % (w/v) BSA, 0.05 % (w/v) Tween-20). For the detection of signals, microarrays were incubated with a secondary α-mouse antibody conjugated with Alexa633 (A-21050, Invitrogen) at a concentration of 1 μg/ml for 15 min at RT followed by a last washing step with washing buffer. Microarrays were dried with nitrogen and scanned using a ProScanArray (PerkinElmer Life Sciences, Waltham, Massachusetts), and the data were analysed using ArrayPro Analyzer software (Media Cybernetics, Silver Spring, USA) as described before. Final data represented the mean signal intensities corrected for the median of a ring-shaped local background surrounding the respective peptide spot. Titrations with α-pY antibody and GRB2-SH2 were performed to calculate dissociation constants (see below).
The resulting titration curves were fitted with Origin (OriginLab Corporation, v.6.1057, Northampton, USA) using a binding isotherm for a bimolecular interaction (Eq. 1):1 Fabs=Fmaxprot/Kd+prot Fabs represents the intensity of a microarray spot after background correction and [prot] the concentration of the titrated binder. Kd and Fmax were obtained from the fits.
To render this approach quantitative, first the affinities of the α-pY antibody towards the phosphotyrosine motifs of the microarrays were determined. […] The titration curves were fitted with a binding isotherm for a bimolecular interaction (Eq. 1, Fig. 2a, Table 1). In general, a coefficient of determination (R^2) of 0.8 was used as a cutoff in order to score a peptide as a binder. […] Regarding the poly-proline motif (PP) containing peptides present on the microarray, only on the peptide GAB2-509 in five experiments, a titration curve with an R^2 > 0.8 could be generated.

[2] = test system: SH2 domain of GRB2 (GRB2-SH2); conditions: cited from earlier work; for binding to GRB2 / GRB2-SH2 (in words): Kd values of GRB2-SH2 described in recently published manuscript, ref [14]
Source text: In contrast, the data points for LATpY191 and SHP1pY564, and SigpY437, ZAPpY319 and CDζpY72/83 were above or below the linear correlation defined by the first four peptides. […] SigpY437, in contrast, is a poor binder for which already low concent ...

[3] = test system: proteins in Jurkat cell lysate (total cellular proteome); assay: Competition of recombinant GRB2-SH2 binding with cell lysate on peptide microarrays
Description: (§5) Jurkat T cell leukaemia cells were maintained in RPMI 1640 medium (PAN-Biotech, Aisenbach, Germany) supplemented with 10 % foetal calf serum at 37 °C in 5 % CO2. For the preparation of lysates, cells were resuspended in lysis buffer (1 % Triton X-100, 50 mM n-octyl-D-glucopyranoside (Fluka, Taufkirchen, Germany), 20 mM Tris, 1 mM EDTA, 150 mM NaCl, 1 mM Na3VO4, pH 7.5, and complete protease inhibitor cocktail (Roche Applied Science, Mannheim, Germany)). Incubation on ice for 1 h was followed by centrifugation at 20,000×g at 4 °C for 15 min to remove cell debris. Transmembrane proteins were extracted from lipid rafts by using N-octyl-D-glucopyranoside. Protein concentrations were measured by Bradford Assay.
The PCR product of the SH2 domain of GRB2 (GRB2-SH2) was cloned into the pET160/GW/D-TOPO vector (Invitrogen, Breda, The Netherlands), which contains a region encoding for a His-tag. The plasmid was used to perform a transformation into One Shot TOP10 competent cells (Invitrogen). […] The concentration of expressed protein was determined by photometric measurements at OD280. The concentration of GRB2-SH2 was determined in Western blots by quantitatively analysing obtained bands of purified GRB2-SH2 in an Odyssey Infrared Imaging System (Li-Cor Biosciences, Bad Homburg, Germany) in comparison with a bovine serum albumin (BSA) standard. […]

[4] = test system: proteins in Jurkat cell lysate (total cellular proteome); assay: Competition of α-pY antibody binding with Jurkat cell lysate on peptide microarrays; conditions: for Kd: from EC50 and Kd α-pY by Cheng-Prusoff equation (Eq. 4), ± standard deviation
Description: as §1, §2, §5, §3, §4
For determination of EC50 values for competition with cell lysate, curves were fitted according to2 y=y0+Ae^−x/t with y0 as the signal intensity of the α-pY antibody or the recombinant GRB2-SH2 domain without cell lysate, A the amplitude, x the protein concentration in lysate, and t the decay constant. […]

Structure (SMILES)	affinity of the α-pY antibody (in words) [1]	Kd [1] [µM]	affinity for the SH2 domain of GRB2 (in words) ([2]; ref [25], [26])	competition of GRB2-SH2 by cell lysate (in words) [3]	Kd [4] [µM]	loss of signal of the α-pY antibody on competition with cell lysate ([4]; result in words, Jurkat lysate up to 180 μM total protein)	binding to GRB2 / GRB2-SH2 (in words) [2]	affinity for the SH2 domain of GRB2 (in words) ([2]; same as stated for LATpY191 (strong affinity for SH2 domain of GRB2), ref [27])
CC(C)C[C@H](NC(=O)[C@H](CCC(=O)O)NC(=O)[C@H](CCC(N)=O)NC(=O)[C@H](CO)NC(=O)[C@@H](NC(=O)[C@H](CC(N)=O)NC(=O)[C@@H](NC(=O)[C@H](Cc1ccc(OP(=O)(O)O)cc1)NC(=O)[C@H](CCC(=O)O)NC(=O)[C@H](CCCNC(=N)N)NC(=O)[C@H](CO)NC(=O)CNC(=O)[C@H](CC(=O)O)NC(=O)[C@H](CC(C)C)NC(=O)[C@H](CO)NC(=O)[C@H](C)NC(=O)[C@H](CCC(=O)O)NC(=O)[C@@H](N)CS)C(C)C)C(C)C)C(N)=O [LATpY191] (H-CEASLDGSRE[pY]VNVSQEL-NH2)	high affinity	0.00035 ± 0.00028	strong affinity	rather small competition	16 ± 15	total loss of signal		
CC(C)C[C@H](NC(=O)[C@H](CCC(=O)O)NC(=O)[C@H](CCC(N)=O)NC(=O)[C@H](CC(C)C)NC(=O)[C@H](CC(N)=O)NC(=O)[C@H](CCC(=O)O)NC(=O)[C@H](Cc1ccc(OP(=O)(O)O)cc1)NC(=O)[C@H](CC(=O)O)NC(=O)[C@@H]1CCCN1C(=O)[C@H](C)NC(=O)CNC(=O)[C@H](CCC(=O)O)NC(=O)[C@H](CCC(=O)O)NC(=O)[C@H](CCC(=O)O)NC(=O)[C@@H](NC(=O)[C@H](CCC(=O)O)NC(=O)[C@@H](N)CS)C(C)C)C(=O)N[C@@H](CC(N)=O)C(N)=O [LATpY226] (H-CEVEEEGAPD[pY]ENLQELN-NH2)		0.00044 ± 0.00027			15 ± 11		good binder	
CC(C)C[C@H](NC(=O)[C@H](CC(N)=O)NC(=O)[C@H](CCC(=O)O)NC(=O)[C@H](Cc1ccc(OP(=O)(O)O)cc1)NC(=O)[C@@H](NC(=O)[C@H](CC(=O)O)NC(=O)[C@H](CCC(=O)O)NC(=O)[C@H](CCCCN)NC(=O)[C@H](Cc1c[nH]cn1)NC(=O)[C@H](CCCCN)NC(=O)[C@H](CO)NC(=O)[C@@H](N)CS)C(C)C)C(=O)N[C@@H](Cc1c[nH]cn1)C(=O)N[C@H](C(=O)N[C@@H](CCCCN)C(=O)N[C@@H](CC(N)=O)C(=O)N[C@@H](CCCCN)C(N)=O)[C@@H](C)O [SHP1pY564] (H-CSKHKEDV[pY]ENLHTKNK-NH2)	relatively low affinity	0.00089 ± 0.00057			17 ± 10			The same holds true
CC[C@H](C)[C@H](NC(=O)[C@H](CCC(=O)O)NC(=O)[C@H](CCCNC(=N)N)NC(=O)[C@H](CCC(=O)O)NC(=O)[C@H](CCC(=O)O)NC(=O)CNC(=O)[C@@H](N)CS)C(=O)N[C@@H](CCC(N)=O)C(=O)N[C@@H](Cc1ccc(OP(=O)(O)O)cc1)C(=O)N[C@@H](C)C(=O)N1CCC[C@H]1C(=O)N[C@@H](CC(C)C)C(=O)N[C@@H](CO)C(=O)N[C@@H](Cc1ccccc1)C(=O)N[C@@H](Cc1c[nH]cn1)C(=O)N[C@@H](CCCCN)C(=O)NCC(N)=O [SigpY437] (H-CGEEREIQ[pY]APLSFHKG-NH2)		0.00066 ± 0.00046		already low concentrations of lysate show full competition	22 ± 20		poor binder	
